The results in this text go back to PMC5597121, “The human bitter taste receptor T2R38 is broadly tuned for bacterial compounds” (PLoS ONE, 2017).

Changes are numbered by the printed parent chain. Values joined by “and” are separate entries in the source; they are usually repeats but may differ in a detail not shown here. Equal values may be shown once. “Also recorded” adds a separate entry of the source. Positions of bridges follow the written chain, without caps; N, C: chain ends. Residues, ends and D or L forms follow the SMILES beside them.

For series [1], the target named is T1, T2R38 (Homo sapiens, UniProt P59533, A49P/I296V).
T1 construct: leader: first 45 amino acids of rat somatostatin receptor subtype 3 (SSTR3) (N); expressed in transfected cells; host or cells: Peakrapid cells (HEK293 derivative, ATCC CRL-2828) stably expressing Galpha16gustducin44, co-transfected with human RTP4
T1 sequence (P59533 1-333 A49P/I296V): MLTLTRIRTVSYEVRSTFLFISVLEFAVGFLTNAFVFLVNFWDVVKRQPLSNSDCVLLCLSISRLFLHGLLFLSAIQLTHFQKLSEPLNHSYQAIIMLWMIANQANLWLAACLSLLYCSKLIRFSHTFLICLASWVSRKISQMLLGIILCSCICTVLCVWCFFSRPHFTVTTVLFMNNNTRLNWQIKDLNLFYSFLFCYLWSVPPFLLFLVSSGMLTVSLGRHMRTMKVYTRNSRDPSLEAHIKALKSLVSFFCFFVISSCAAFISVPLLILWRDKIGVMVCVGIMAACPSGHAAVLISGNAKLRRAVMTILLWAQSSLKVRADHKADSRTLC
Briefly: Single cell calcium imaging, Peakrapid cells (Gα16gustducin44) transiently transfected with T2R38. Format: cell-based. The conditions noted are these: for response of T2R38 PAV transfected cells (S7_fig raw data): individual values of experiments 1-5; for EC50: concentration-response curve, read-out: EC50; for logEC50: given in the concentration-response curve; for Emax (% of positive control): percentage of the response elicited by 0.1 mM PTC. In outline:
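HEK293-derived Peakrapid cells stably expressing Gα16gustducin44 were transiently co-transfected with T2R38 (PAV or AVI variant) plus RTP4, then loaded with Fluo4 40 h later. Calcium responses were imaged 1/s for 30 s after ligand injection. Responding-cell surface was normalized to 0.1 mM PTC, with EC50 from four-parameter fits; testing began at 100 mM.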

Series [2] can be described thus: Solubility in aqueous / buffer solution. It counts as physicochemical. The procedure: 32 volatile metabolites of pathogens (S1 Fig) were selected from the literature. All compounds were dissolved in buffer solution, except C4HSL dissolved in buffer solution, DMSO or ethanol, C12HSL dissolved in DMSO or ethanol, and Agr D1 thiolactone dissolved in DMSO.
Series [3] concerns mock transfected cells (empty vector). Briefly: Single cell calcium imaging, control: mock transfected (empty vector) Peakrapid cells. Format: cell-based, human. The method in brief: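 Peakrapid cells stably expressing Gα16gustducin44 were transfected with empty vector plus RTP4, loaded with Fluo4 40 h later for 1 h at 37°C, and ligand was injected during 30 s imaging. The responding-cell surface fraction was normalized to 0.1 mM PTC activation. EC50 came from a four-parameter logistic fit.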

For series [4], the target named is T2, T2R38 AVI (Homo sapiens, UniProt P59533, A262V).
T2 construct: leader: first 45 amino acids of rat somatostatin receptor subtype 3 (SSTR3) (N); expressed in transfected cells; host or cells: Peakrapid cells (HEK293 derivative, ATCC CRL-2828) stably expressing Galpha16gustducin44, co-transfected with human RTP4
T2 sequence (P59533 1-333 A262V): T1 sequence (P59533 1-333 A49P/I296V) with P49A, A262V, V296I
The series is described as follows: Single cell calcium imaging, control: cells transfected with nonfunctional allele (AVI) of T2R38. It counts as cell-based. The conditions noted are these: T2R38 AVI, individual values of experiments 1-5. The procedure: The coding sequences of either the functional (PAV, GenBank accession number AY258597.1) and non-functional (AVI, GenBank accession number AF494231.1) were amplified from human genomic DNA by polymerase chain reaction.
The Peakrapid cell line expressing stably a chimeric Gα16gustducin44 G protein [21] was used. 40 000 cells were seeded in each well of a black/clear poly-D-lysine cellware pre-coated 96-well plate (Biocoat®, Becton-Dickinson, Erembodegem, Belgium) and transiently transfected with 50 ng of plasmid DNA containing the receptor sequence or not (empty vector) and with 50 ng of chaperone protein RTP4 per well. Forty hours after transfection, cells were incubated with the calcium-sensitive dye Fluo4 (Life Technologies, Oregon, USA) solubilized at 10 μg/ml in a buffer containing EMEM (150 mM NaCl, 5 mM KCl, 2 mM CaCl2, 1.2 mM MgCl2, 10 mM glucose), 10 mM HEPES, 0.01% (v/v) Pluronic F127, 0.1% (w/v) bovine serum albumin. After 1 h incubation at 37°C, cells were rinsed twice with the same buffer without Fluo4 and left in 50 μl buffer (prior ligand injection). Measurement were performed on a platform based on a motorized Axiobserver Z1 fluorescence microscope piloted by a Axiovision software (Zeiss, Jena, Germany) as described previously. For each selected well, images were taken 1 per second, during 30 seconds. 50 μl of the buffer containing the ligand twice concentrated was injected on the 2nd second of the time lapse record.
After time lapse record, the number of responding cells in each injected well was determined using ImageJ 1.34 (Rasband, W.S., ImageJ, National Institutes of Health, Bethesda, Maryland, USA, http://rsb.info.nih.gov/ij/1997-2004), and expressed as the percentage of the surface of a microscope field covered by activated cells with respect to the total surface of the field covered by confluent cells. Automated determination of the surface occupied by responding cells is easier to perform than a cell counting. The resulting percentage of positive surface provided a convenient estimation of the percentage of responding cells, as observed by comparing the percentage of positive surface and percentage of responsive cells determined by direct counting, in the same experiment. In agreement with the literature, the percentage of responding cells was proportional to the agonist concentration. During experiment in each plate, at least 2 wells were tested with phenylthiocarbamide (PTC) at 0.1 mM, which is one of the best characterized agonist of T2R38 in the literature. The activation of T2R38 by PTC allows normalization of the result of other tested molecules. The results were thus expressed as the percentage of PTC activation. In scaling calcium imaging assays using this latter receptor, concentration-responses curves were performed and data were fitted to a four parameter logistic equation: y=min+ (max− min)/1+10 ^(logEC50−x)nH . Min and max are the minimum and the maximum values of the percentage of cell-activated surface respectively, y is the percentage of cell-activated surface at the x concentration and nH is the Hill coefficient.

For the molecule `CC[C@H](C)[C@@H]1NC(=O)[C@H](Cc2ccccc2)NC(=O)[C@H](CC(=O)O)NC(=O)[C@@H](NC(=O)[C@@H](NC(=O)[C@H](CO)NC(=O)[C@@H](N)Cc2ccc(O)cc2)[C@@H](C)O)CSC(=O)[C@H](CCSC)NC1=O` [Agr D1 thiolactone] (H-YSTCDFIM; thioester 4-C; N-terminus assumed), the “agonist activity on T2R38 (in words)” value in series [1] was “inactive”. Besides, in series [1] (0.1 mM solubilized in 0.3% DMSO), the “specific activation of T2R38” value was “did not show specific activation; also recorded: did not activate T2R38”. The solubility entry in series [2] was “not soluble in aqueous solution”.
For `CC[C@H](C)[C@H](NC(=O)[C@H](Cc1ccccc1)NC(=O)[C@H](CC(=O)O)NC(=O)[C@H](CCCNC(=N)N)NC(=O)[C@H](Cc1ccccc1)NC(=O)[C@H](Cc1ccccc1)NC(=O)[C@H](CCCCN)NC(=O)[C@H](CO)NC(=O)[C@H](CC(C)C)NC(=O)[C@H](CCCNC(=N)N)NC(=O)[C@H](CCSC)NC(=O)[C@@H](N)CCC(=O)O)C(=O)N[C@@H](CC(C)C)C(=O)N[C@@H](CCC(N)=O)C(=O)N[C@@H](CCCNC(=N)N)C(=O)N[C@@H](CCCCN)C(=O)N[C@@H](CCCCN)C(=O)O` [CSP-1], the “agonist activity on T2R38 (in words)” value in series [1] is “inactive”. Further, the “response of T2R38 transfected cells (S6_fig raw data)” value in series [1] (CSP-1 0.5 mM, T2R38, individual values of experiments 1-3) is 37.13% and 3.20% and 100.83%. Moreover, the solubility result in series [2] was “soluble at 0.5 mM in the buffer solution”.
With `CC(C)=O` [acetone], the “agonist activity on T2R38 (in words)” value in series [1] is “able to specifically trigger this receptor”. In addition, the “response of T2R38 PAV transfected cells (S7_fig raw data)” value in series [1] was 16% and 18% and 21% and 22% and 7% and 15%. Further, the “percentage of surface covered by activated cells” value (shortened to “percentage of surface covered”) in series [1] (acetone 0.0035, log10[ ] -2.45) is 0.29% and 0.16% and 0.35%; in series [1] (acetone 0.011, log10[ ] -1.95) it was 1.02% and 0.77% and 0.78% and 0.46% and 1.17% and 0.98%; in series [1] (acetone 0.035, log10[ ] -1.45) it was 0.69% and 0.81% and 7.95% and 5.59% and 2.13% and 2.80%; in series [1] (acetone 0.066, log10[ ] -1.18), 2.66% and 2.94% and 6.89% and 9.70%; in series [3] (acetone 0.0035, log10[ ] -2.45), 1.26% and 0.40% and 0.58%; in series [3] (acetone 0.011, log10[ ] -1.95) it was 0.32% and 0.08% and 0.49% and 0.06%. Further, the “percentage of surface covered” value in series [3] (acetone 0.035, log10[ ] -1.45) is 0.26% and 0.42% and 1.02% and 0.10%; in series [3] (acetone 0.066, log10[ ] -1.18), 1.43% and 0.30% and 0.70%; in series [3] (acetone 0.114, log10[ ] -0.94), 0.76% and 0.05% and 0.38% and 0.11%; in series [3] (acetone 0.162, log10[ ] -0.79), 1.04% and 0.22% and 0.73% and 0.01%; in series [3] (acetone 0.185, log10[ ] -0.73), 0.0454% and 0.0283% and 0.02%. Besides, the EC50 in series [1] came out at 60 mM. Besides, the logEC50 in series [1] is -1.22. Moreover, the “Emax (% of positive control)” value in series [1] is 67 % of positive control. Further, the “response of T2R38 AVI transfected cells (S7_fig raw data)” value in series [4] is 0.559% and 1.33% and 0.331% and 0.695% and 0.444% and 0.829%.
In the case of `CS` [methylmercaptan], in series [1], the “agonist activity on T2R38 (in words)” value is “able to specifically trigger this receptor”, the EC50 is 8 mM, the logEC50 is listed as -2.07 and the “Emax (% of positive control)” value is 31 % of positive control. Further, the “response of T2R38 PAV transfected cells (S7_fig raw data)” value in series [1] (listed as méthylmercaptan) is 3.25% and 3.44% and 8% and 6% and 6.36% and 5% and 1.09% and 2.8% and 3.57% and 1.72% and 3% and 1.56% and 5.64% and 4.55%. Further, the “percentage of surface covered” value in series [1] (méthylmercaptan 0.000630957, log10[ ] -3.2) was 0.11% and 0.07% and 0.29% and 0.31% and 0.27% and 0.54% and 0.96% and 0.62%. For the same molecule, in series [1] (méthylmercaptan 0.00439285, log10[ ] -2.35725), the “percentage of surface covered” value is 0.81% and 0.87% and 0.46% and 0.37% and 1.33% and 0.26% and 1.05% and 0.97%. Moreover, the “percentage of surface covered” value in series [3] (méthylmercaptan 0.0075, log10[ ] -2.12494) was 0.35% and 0.33% and 0.26% and 0.19% and 1.74% and 0.81% and 0.76%. The “percentage of surface covered” value in series [3] (méthylmercaptan 0.01, log10[ ] -2) was 0.36% and 0.09% and 0.12% and 0.53% and 2.03% and 0.10% and 0.15% and 0.34%. The “response of T2R38 AVI transfected cells (S7_fig raw data)” value in series [4] (listed as méthylmercaptan) was 0.549% and 0.185% and 0.235% and 0.0265% and 0.511% and 0.151% and 0.286% and 0.362% and 1.77% and 0.619% and 1.26% and 0.598% and 0.172% and 0.165%.

Usually EC50 stands for the concentration at which the effect is half-maximal.
